Source: ChEMBL document CHEMBL3808387, “Discovery of IWP-051, a Novel Orally Bioavailable sGC Stimulator with Once-Daily Dosing Potential in Humans” (ACS Med Chem Lett, 2016)

Key:
[1] = biological target: Soluble guanylate cyclase (Homo sapiens, UniProt O75343+P33402+Q02108+Q02153); test: Activation of SGC in HEK293 cells assessed as cGMP production after 20 mins by LC-MS/MS analysis in presence of NO-donor DETA-NONOate; assay type: cell-based
[2] = Intrinsic clearance in Sprague-Dawley rat liver microsomes assessed per mg of protein at 2 uM after 10 to 30 mins by LC/MS/MS analysis in presence of NADPH; assay type: ADME; conditions: read-out: CLH
[3] = Intrinsic clearance in human liver microsomes assessed per mg of protein at 2 uM after 10 to 30 mins by LC/MS/MS analysis in presence of NADPH; assay type: ADME; conditions: read-out: CLH
[4] = Terminal half-life in Sprague-Dawley rat at 1 mg/kg, iv by LC-MS/MS analysis; assay type: ADME, organism-based; conditions: in vivo, read-out: beta t1/2
[5] = Oral bioavailability in Sprague-Dawley rat at 10 mg/kg by LC-MS/MS analysis; assay type: ADME, organism-based; conditions: in vivo
[6] = biological target: T1, Kappa-type opioid receptor (Homo sapiens, UniProt P41145); test: Agonist activity at KOP receptor (unknown origin)
T1 sequence (P41145 whole entry): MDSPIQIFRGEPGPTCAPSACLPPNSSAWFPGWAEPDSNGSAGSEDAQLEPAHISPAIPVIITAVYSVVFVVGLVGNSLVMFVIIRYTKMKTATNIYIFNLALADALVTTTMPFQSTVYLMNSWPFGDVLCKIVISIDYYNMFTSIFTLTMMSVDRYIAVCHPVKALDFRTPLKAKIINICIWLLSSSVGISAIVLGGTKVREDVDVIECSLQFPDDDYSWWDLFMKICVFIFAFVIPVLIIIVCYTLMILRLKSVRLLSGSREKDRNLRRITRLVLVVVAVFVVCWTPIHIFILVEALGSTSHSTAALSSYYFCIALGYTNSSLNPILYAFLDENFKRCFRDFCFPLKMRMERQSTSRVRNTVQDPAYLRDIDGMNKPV

[7] = biological target: T1, Kappa-type opioid receptor; test: Binding affinity to KOP receptor (unknown origin)
[8] = biological target: Soluble guanylate cyclase (Homo sapiens) (UniProt Q02153+O75343+P33402+Q02108); test: Activation of SGC in HEK293 cells assessed as cGMP production at 30 uM after 20 mins by LC-MS/MS analysis in presence of NO-donor DETA-NONOate; assay type: cell-based

Chain of Soluble guanylate cyclase (Q02153 whole entry): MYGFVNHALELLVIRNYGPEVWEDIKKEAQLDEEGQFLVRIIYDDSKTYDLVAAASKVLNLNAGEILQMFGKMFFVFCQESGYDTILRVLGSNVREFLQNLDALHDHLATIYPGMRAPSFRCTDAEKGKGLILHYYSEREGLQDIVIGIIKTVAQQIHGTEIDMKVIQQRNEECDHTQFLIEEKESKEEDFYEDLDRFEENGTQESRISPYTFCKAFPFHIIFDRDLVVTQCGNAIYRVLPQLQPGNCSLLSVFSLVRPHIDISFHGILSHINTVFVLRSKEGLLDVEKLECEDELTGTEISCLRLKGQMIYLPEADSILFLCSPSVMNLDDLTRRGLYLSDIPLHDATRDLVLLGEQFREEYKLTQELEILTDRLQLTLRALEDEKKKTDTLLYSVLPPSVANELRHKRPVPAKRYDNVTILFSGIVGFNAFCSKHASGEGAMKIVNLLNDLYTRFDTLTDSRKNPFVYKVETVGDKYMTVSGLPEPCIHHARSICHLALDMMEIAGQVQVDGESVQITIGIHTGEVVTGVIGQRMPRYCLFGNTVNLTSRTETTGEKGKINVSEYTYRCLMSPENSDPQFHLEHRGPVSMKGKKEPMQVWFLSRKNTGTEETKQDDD
Chain of Soluble guanylate cyclase (O75343 whole entry): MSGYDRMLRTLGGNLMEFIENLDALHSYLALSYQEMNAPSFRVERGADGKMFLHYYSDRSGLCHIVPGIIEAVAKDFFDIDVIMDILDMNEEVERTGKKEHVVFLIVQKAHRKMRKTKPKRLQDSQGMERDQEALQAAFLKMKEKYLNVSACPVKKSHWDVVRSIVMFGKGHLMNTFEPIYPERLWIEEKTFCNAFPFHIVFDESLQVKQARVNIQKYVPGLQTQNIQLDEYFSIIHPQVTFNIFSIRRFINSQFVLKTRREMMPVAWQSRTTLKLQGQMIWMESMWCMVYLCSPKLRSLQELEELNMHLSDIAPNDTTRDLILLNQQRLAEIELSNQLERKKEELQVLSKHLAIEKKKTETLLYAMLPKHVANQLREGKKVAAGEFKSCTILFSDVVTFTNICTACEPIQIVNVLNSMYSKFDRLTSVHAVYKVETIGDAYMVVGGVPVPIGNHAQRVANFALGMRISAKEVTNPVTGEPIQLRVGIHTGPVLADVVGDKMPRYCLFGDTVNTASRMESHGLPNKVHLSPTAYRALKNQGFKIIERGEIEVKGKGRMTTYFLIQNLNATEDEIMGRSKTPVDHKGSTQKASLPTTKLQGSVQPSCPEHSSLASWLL
Chain of Soluble guanylate cyclase (P33402 whole entry): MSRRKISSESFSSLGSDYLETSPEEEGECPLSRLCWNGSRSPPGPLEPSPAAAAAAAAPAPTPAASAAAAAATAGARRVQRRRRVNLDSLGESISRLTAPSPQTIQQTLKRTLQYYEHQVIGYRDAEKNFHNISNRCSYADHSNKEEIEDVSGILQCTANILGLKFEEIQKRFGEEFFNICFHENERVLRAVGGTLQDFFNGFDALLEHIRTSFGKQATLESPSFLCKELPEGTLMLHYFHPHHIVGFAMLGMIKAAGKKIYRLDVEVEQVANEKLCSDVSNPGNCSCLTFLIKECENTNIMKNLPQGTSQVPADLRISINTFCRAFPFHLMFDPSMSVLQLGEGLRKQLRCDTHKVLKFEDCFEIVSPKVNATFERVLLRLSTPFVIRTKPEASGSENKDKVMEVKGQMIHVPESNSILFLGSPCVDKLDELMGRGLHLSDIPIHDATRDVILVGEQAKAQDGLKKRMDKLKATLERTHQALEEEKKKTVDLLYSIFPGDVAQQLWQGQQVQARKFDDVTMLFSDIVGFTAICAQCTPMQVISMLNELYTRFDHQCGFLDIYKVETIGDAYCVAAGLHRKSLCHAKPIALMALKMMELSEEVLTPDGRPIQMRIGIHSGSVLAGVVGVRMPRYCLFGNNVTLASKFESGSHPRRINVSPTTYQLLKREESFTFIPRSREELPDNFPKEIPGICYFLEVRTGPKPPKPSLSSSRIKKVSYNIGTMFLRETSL
Chain of Soluble guanylate cyclase (Q02108 whole entry): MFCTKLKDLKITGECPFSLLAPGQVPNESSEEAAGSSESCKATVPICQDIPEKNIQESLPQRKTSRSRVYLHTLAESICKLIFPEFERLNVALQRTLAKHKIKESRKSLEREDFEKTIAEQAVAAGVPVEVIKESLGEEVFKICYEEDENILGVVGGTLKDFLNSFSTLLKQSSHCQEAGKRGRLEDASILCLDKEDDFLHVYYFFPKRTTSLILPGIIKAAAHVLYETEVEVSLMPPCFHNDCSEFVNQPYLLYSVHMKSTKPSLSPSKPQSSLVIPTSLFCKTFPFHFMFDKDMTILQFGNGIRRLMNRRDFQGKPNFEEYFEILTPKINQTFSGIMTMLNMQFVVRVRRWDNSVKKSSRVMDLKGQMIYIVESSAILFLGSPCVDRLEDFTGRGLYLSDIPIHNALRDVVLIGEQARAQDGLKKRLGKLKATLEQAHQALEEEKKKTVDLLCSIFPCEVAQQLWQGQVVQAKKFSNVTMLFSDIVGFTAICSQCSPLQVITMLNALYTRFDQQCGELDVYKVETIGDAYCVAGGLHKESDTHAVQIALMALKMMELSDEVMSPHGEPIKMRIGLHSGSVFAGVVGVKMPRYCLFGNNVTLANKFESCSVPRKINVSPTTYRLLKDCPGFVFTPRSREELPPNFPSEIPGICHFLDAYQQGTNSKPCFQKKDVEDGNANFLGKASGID

| EC50 [1] [µM] | microsomal CLint at 2 µM [2] [µL/min/mg] | microsomal CLint at 2 µM [3] [µL/min/mg] | half-life [4] [min] | bioavailability [5] [%] | EC50 [6] [µM] | IC50 [7] [µM] | Emax [8] [%] | Compound |
| --- | --- | --- | --- | --- | --- | --- | --- | --- |
| 0.24 | 26 | 10 | 26 | 53 | 1.5 | 1.2 | – | Nc1ccnc(-c2cc(-c3ccon3)n(Cc3ccccc3F)n2)n1 |
| – | 26 | 14 | – | – | – | – | 53 | O=C(Nc1cnc(-c2cc(-c3ccon3)n(Cc3ccccc3F)n2)nc1O)c1ccccc1 |
| 0.16 | 15 | 6 | – | – | – | – | – | O=S(=O)(c1ccc(Cl)cc1)c1cnc(-c2cc(-c3ccon3)n(Cc3ccccc3F)n2)nc1O |
| – | 20 | 19 | – | – | – | – | 54 | Oc1nc(-c2cc(-c3ccon3)n(Cc3ccccc3F)n2)ncc1C(F)(F)F |
| – | 39 | 9 | – | – | – | – | 35 | Oc1nc(-c2cc(-c3ccccn3)n(Cc3ccccc3F)n2)ncc1F |
| – | 16 | 9 | – | – | – | – | 70 | Cc1nc(-c2cc(-c3ccon3)n(Cc3ccccc3F)n2)nc(O)c1F |
| – | 24 | 8 | – | – | – | – | 87 | CN(C)S(=O)(=O)c1cnc(-c2cc(-c3ccon3)n(Cc3ccccc3F)n2)nc1O |
| 0.9 | 13 | 15 | – | – | – | – | – | CS(=O)(=O)c1cnc(-c2cc(-c3ccon3)n(Cc3ccccc3F)n2)nc1O |
| 0.88 | 10 | 11 | – | – | – | – | – | Oc1nc(-c2cc(-c3ccon3)n(Cc3ccccc3)n2)ncc1F |

More lines, now with the values behind:

| Compound | EC50 [1] [µM] | microsomal CLint at 2 µM [2] [µL/min/mg] | microsomal CLint at 2 µM [3] [µL/min/mg] | half-life [4] [min] | bioavailability [5] [%] | EC50 [6] [µM] | IC50 [7] [µM] | Emax [8] [%] |
| --- | --- | --- | --- | --- | --- | --- | --- | --- |
| Oc1nc(-c2cc(-c3ccon3)n(Cc3sccc3F)n2)ncc1F | 0.28 | 13 | 11 | – | – | – | – | – |
| COc1nc(-c2cc(-c3ccon3)n(Cc3ccccc3F)n2)ncc1F | – | – | 20 | – | – | – | – | – |
| O=c1[nH]c(-c2cc(-c3ccon3)n(Cc3cccc(Cl)c3F)n2)ncc1F | 0.38 | 2 | 5 | – | – | – | – | – |
| Cc1cccc(Cn2nc(-c3ncc(F)c(O)n3)cc2-c2ccon2)c1F | 0.24 | 79 | 8 | – | – | – | – | – |
| O=c1[nH]c(-c2cc(-c3ccsn3)n(Cc3ccccc3F)n2)ncc1F | 0.18 | 129 | 169 | – | – | – | – | – |
| Oc1nc(-c2cc(-c3ccon3)n(CCC(F)(F)F)n2)ncc1F | – | 32 | 23 | – | – | – | – | – |
| Oc1nc(-c2cc(-c3cocn3)n(Cc3ccccc3F)n2)ncc1F | – | 9 | 4 | – | – | – | – | 78 |
